The text below walks through data of US20050010368A1, “Method for the prediction of binding targets and the design of ligands” (priority 1997, published 2005).

Assay [1] has as its target T1, endothiapepsin (Cryphonectria parasitica, UniProt P11838). The following applies: relative to wild type pepstatin A.
From the text: In all cases, the coordinate sets for the complexes between the protein and the mutated peptides are generated by using the coordinates of the wild type complex as a template. Replacement mutants are created by replacing the original side chain with the desired mutation, leaving the backbone in the original conformation. For mutations that involve the addition of an extra amino acid at either end of the peptide chain, the backbone torsional angles are also included in the minimization.
The inhibitor contains two residues of the unusual amino acid statine (Sta: 4(S)-amino-3(S)-hydroxy-6methylheptanoic acid). […] Two different mutations of pepstatin A were studied. […] Twelve possible mutations at this position were considered (Cys, Gly, His, Ile, Leu, Met, Phe, Ser, Thr, Trp, Tyr, Val). For each of these mutations, the most probable conformation was identified. In the second case, the addition of an amino acid at the carboxy terminus of pepstatin A was considered. In this case, a simultaneous optimization of side chain and backbone conformations was performed in order to identify the most probable conformation.
The target in assay [2] is T1, endothiapepsin. The assay is classed as biochemical. From the text:
The ΔΔG values are relative to the wild type. […] To test the structure-based thermodynamic prediction, the A5F mutant of pepstatin A was synthesized and the overall inhibition constant determined experimentally.

Assay [3] addresses T2, V82A mutant HIV-1 protease (Human immunodeficiency virus type 1 group M subtype B, UniProt P04585, V570A).
T2 construct: the complex of A77003 with the V82A mutant HIV-1 protease
The following applies: V82A mutant vs wild type; Baldwin et al., 1995; cited from earlier work.

For assay [4], the target named is T1, endothiapepsin. The source says: The second mutation considered in this study involved the addition of an amino acid at the carboxy terminus of the peptide.
The next assay addresses HIV-1 protease (Human immunodeficiency virus type 1 group M subtype B, UniProt P04585). As to the kind of experiment: Structure-based thermodynamic calculation of inhibitor binding to HIV-1 protease. How it is done:
In all cases presented here the Gibbs energy of binding, ΔG, was calculated from the published crystallographic structures using procedures previously described (D'Aquino et al., 1996; Gomez et al., 1995(a); Gomez et al., 1995(b); Hilser et al., 1996(b); Luque et al., 1996). These calculations require the structures of the complex as well as the structures of the unligated protein and unligated inhibitor. In this approach, the generic portion of the Gibbs energy, ΔGgen, is calculated from a separate computation of its enthalpy and entropy components. […]
The most significant structural/solvation contributions to the total free energy of binding are contained in the term […] which is calculated by estimating separately its enthalpy and entropy components. […]
The changes in accessible surface areas were calculated by implementing the Lee and Richards algorithm (Lee et al., 1971). […]
In binding or folding, the bulk of the enthalpy change originates from the formation of internal interactions (van der Waals, hydrogen bonds, etc.) and the parallel desolvation of the interacting groups. […] For example, it has been shown that for binding processes in which protons are either released or absorbed the measured enthalpy depends on the ionization enthalpy of the buffer (Gomez et al., 1995(b)). […]

The target of assay [5] is T1, endothiapepsin. To be noted: reference cited, cited from earlier work.

Like-named read-outs stand apart in the source and are kept apart here.

T1 sequence (P11838 90-419): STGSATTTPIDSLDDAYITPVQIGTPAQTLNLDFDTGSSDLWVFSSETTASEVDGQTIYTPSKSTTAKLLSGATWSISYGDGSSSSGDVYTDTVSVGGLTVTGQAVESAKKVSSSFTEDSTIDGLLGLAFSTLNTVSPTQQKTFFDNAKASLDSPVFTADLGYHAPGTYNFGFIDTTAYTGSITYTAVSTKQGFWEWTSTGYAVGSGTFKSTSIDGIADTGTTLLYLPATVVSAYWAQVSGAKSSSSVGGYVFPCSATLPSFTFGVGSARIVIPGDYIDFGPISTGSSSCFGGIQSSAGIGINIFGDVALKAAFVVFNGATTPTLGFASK

Iva-Val-Val-Sta-Phe-Sta: the “Gibbs energy of binding more favorable than the wild type” value at endothiapepsin [1] was “about 1 kcal/mol”. Besides, on endothiapepsin [2], the “binding affinity relative to wild type pepstatin A” value is on record as “higher affinity”, the “deviation of ΔG from its predicted value” was 0.84 kJ/mol and the “ΔG(25)exp” value was -55.6 kJ/mol.
Consider `CC(C)[C@H](NC(=O)N(C)Cc1ccccn1)C(=O)N[C@@H](Cc1ccccc1)[C@H](O)[C@H](O)[C@H](Cc1ccccc1)NC(=O)[C@@H](NC(=O)N(C)Cc1ccccn1)C(C)C` [A77003], for which the “reduction in binding affinity measured experimentally” value in assay [3] was 4 fold.
On to Iva-Val-Val-Sta-Ala-Sta-Glu, for which, on endothiapepsin [4] (16° C., calorimetric), the “enthalpy change (ΔH) of binding” value was -19.2 ± 0.42 kJ/mol. For the same molecule, the “heat capacity change (ΔCp)” value at endothiapepsin [4] (from temperature dependence of the binding enthalpy change) is −260±20 cal/K•mol. At endothiapepsin [2], the “binding affinity relative to wild type pepstatin A” value is “lower affinity” and the “ΔG(25)exp” value is -47.3 kJ/mol.
As for `CC(C)CN(C[C@@H](O)[C@H](Cc1ccccc1)NC(=O)O[C@H]1CCOC1)S(=O)(=O)c1ccc(N)cc1` [VX478], the ΔΔG on HIV-1 protease was -2.36 kJ/mol.
With Iva-Val-Val-Sta-Ala-Sta [Pepstatin A], the “ΔG(25)exp” value on endothiapepsin [2] (experimental binding Gibbs energy at 25° C.) was -53.1 kJ/mol. In addition, the ΔH of binding on endothiapepsin [5] (measured under the same conditions (16° C.)) was -17.2 kJ/mol. Further, the ΔCp of binding on endothiapepsin [5] (measured under the same conditions) is −310 cal/K•mol.
